Data reported in patent US7723295B2, “Peptides and compounds that bind to a receptor” (Ortho-McNeil Pharmaceutical, Inc., priority 2003, dated 2010).

Assays:
[1] = tested on: platelet counts; assay: Phase I pharmacodynamics, elevation in platelet counts; assay type: in vivo, human; conditions: for n (>1.5×), subjects with platelet increase / n (>2×), subjects with platelet increase / n (>3×), subjects with platelet increase / n (>4×), subjects with platelet increase: N=6
[2] = molecular target: T1, human TPO receptor (Homo sapiens, UniProt P40238); assay: relative luminescent units assay, murine cells expressing human TPO receptor and fos-promoter luciferase reporter; assay type: cell-based; conditions: FIG. 1; three batches of TPO Compound No. 1 vs one batch of prior art peptide compound
T1 construct: expressed in transfected cells
T1 sequence (P40238 26-635): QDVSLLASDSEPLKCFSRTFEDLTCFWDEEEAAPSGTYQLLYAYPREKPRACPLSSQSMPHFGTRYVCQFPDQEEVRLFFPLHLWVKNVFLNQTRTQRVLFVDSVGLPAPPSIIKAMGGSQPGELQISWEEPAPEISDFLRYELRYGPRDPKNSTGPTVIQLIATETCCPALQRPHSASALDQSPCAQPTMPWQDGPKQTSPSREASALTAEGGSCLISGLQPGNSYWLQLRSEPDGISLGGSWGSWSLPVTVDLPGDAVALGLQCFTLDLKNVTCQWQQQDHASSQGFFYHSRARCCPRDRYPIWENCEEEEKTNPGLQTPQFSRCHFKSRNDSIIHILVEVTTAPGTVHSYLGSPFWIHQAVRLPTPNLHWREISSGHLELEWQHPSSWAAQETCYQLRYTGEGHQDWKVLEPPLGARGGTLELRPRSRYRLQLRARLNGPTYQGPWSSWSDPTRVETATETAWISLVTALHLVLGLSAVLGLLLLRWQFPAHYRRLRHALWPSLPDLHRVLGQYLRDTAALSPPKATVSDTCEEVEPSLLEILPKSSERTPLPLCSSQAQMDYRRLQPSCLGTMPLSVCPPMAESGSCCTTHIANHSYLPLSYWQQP
Source text: The assay employs murine cells engineered to stably express the human TPO receptor and a luciferase reporter construct driven by the fos promoter.

With “(H-IEGPTLRQ(2-Nal)LAAR(Sar))2K-NH2 [TPO Compound No. 1]” the “Pltmax, first value (mean peak platelet count)” value (“Pltmax, first value” below) ([1]; 0.375 μg/kg single i.v.) was 315 10^9/L, the “Pltmax, range in brackets” value ([1]; 0.375 μg/kg single i.v.) was “(214-482) 10^9/L” and the “Pltmax, second value after the slash (footnote not given)” value ([1]; 0.375 μg/kg single i.v.) was 309 10^9/L. The “Pltmax/Plt0, first value (mean)” value ([1]; 0.375 μg/kg single i.v.) was 1.42/1.42, the “Pltmax/Plt0, range in brackets” value ([1]; 0.375 μg/kg single i.v.) was “(1.08-1.81)” and the “Pltmax/Plt0, second value after the slash (footnote not given)” value (“Pltmax/Plt0 … (footnote not given)” for short) ([1]; 0.375 μg/kg single i.v.) was 1.42/1.42. For the same substance, the “n (>1.5×), subjects with platelet increase” value ([1]; 0.375 μg/kg single i.v.) was 3, the “n (>2×), subjects with platelet increase” value ([1]; 0.375 μg/kg single i.v.) was 0 and the “n (>3×), subjects with platelet increase” value ([1]; 0.375 μg/kg single i.v.) was 0. The “n (>4×), subjects with platelet increase” value ([1]; 0.375 μg/kg single i.v.) was 0, the “Pltmax, first value” value ([1]; 0.75 μg/kg single i.v.) was 347 10^9/L and the “Pltmax, range in brackets” value ([1]; 0.75 μg/kg single i.v.) was “(232-495) 10^9/L”. For the same substance, the “Pltmax, second value after the slash (footnote not given)” value ([1]; 0.75 μg/kg single i.v.) was 335 10^9/L, the “Pltmax/Plt0, first value (mean)” value ([1]; 0.75 μg/kg single i.v.) was 1.63/1.63 and the “Pltmax/Plt0, range in brackets” value ([1]; 0.75 μg/kg single i.v.) was “(1.15-2.12)”. The “Pltmax/Plt0 … (footnote not given)” value ([1]; 0.75 μg/kg single i.v.) was 1.63/1.63, the “n (>1.5×), subjects with platelet increase” value ([1]; 0.75 μg/kg single i.v.) was 3 and the “n (>2×), subjects with platelet increase” value ([1]; 0.75 μg/kg single i.v.) was 1. The “n (>3×), subjects with platelet increase” value ([1]; 0.75 μg/kg single i.v.) was 0, the “n (>4×), subjects with platelet increase” value ([1]; 0.75 μg/kg single i.v.) was 0 and the “Pltmax, first value” value ([1]; 1.5 μg/kg single i.v.) was 430 10^9/L. The “Pltmax, range in brackets” value ([1]; 1.5 μg/kg single i.v.) was “(238-597) 10^9/L”, the “Pltmax, second value after the slash (footnote not given)” value ([1]; 1.5 μg/kg single i.v.) was 458 10^9/L and the “Pltmax/Plt0, first value (mean)” value ([1]; 1.5 μg/kg single i.v.) was 1.91. The “Pltmax/Plt0, range in brackets” value ([1]; 1.5 μg/kg single i.v.) was “(1.01-2.59)”, the “Pltmax/Plt0 … (footnote not given)” value ([1]; 1.5 μg/kg single i.v.) was 2.13 and the “n (>1.5×), subjects with platelet increase” value ([1]; 1.5 μg/kg single i.v.) was 4. For the same substance, the “n (>2×), subjects with platelet increase” value ([1]; 1.5 μg/kg single i.v.) was 3, the “n (>3×), subjects with platelet increase” value ([1]; 1.5 μg/kg single i.v.) was 0 and the “n (>4×), subjects with platelet increase” value ([1]; 1.5 μg/kg single i.v.) was 0. For the same substance, the “Pltmax, first value” value ([1]; 2.25 μg/kg single i.v.) was 454 10^9/L, the “Pltmax, range in brackets” value ([1]; 2.25 μg/kg single i.v.) was “(254-576) 10^9/L” and the “Pltmax, second value after the slash (footnote not given)” value ([1]; 2.25 μg/kg single i.v.) was 500 10^9/L. For the same substance, the “Pltmax/Plt0, first value (mean)” value ([1]; 2.25 μg/kg single i.v.) was 2.15, the “Pltmax/Plt0, range in brackets” value ([1]; 2.25 μg/kg single i.v.) was “(1.28-2.98)” and the “Pltmax/Plt0 … (footnote not given)” value ([1]; 2.25 μg/kg single i.v.) was 2.33. For the same substance, the “n (>1.5×), subjects with platelet increase” value ([1]; 2.25 μg/kg single i.v.) was 4, the “n (>2×), subjects with platelet increase” value ([1]; 2.25 μg/kg single i.v.) was 4 and the “n (>3×), subjects with platelet increase” value ([1]; 2.25 μg/kg single i.v.) was 0. The “n (>4×), subjects with platelet increase” value ([1]; 2.25 μg/kg single i.v.) was 0, the “Pltmax, first value” value ([1]; 3.0 μg/kg single i.v.) was 685 10^9/L and the “Pltmax, range in brackets” value ([1]; 3.0 μg/kg single i.v.) was “(188-979) 10^9/L”. The “Pltmax, second value after the slash (footnote not given)” value ([1]; 3.0 μg/kg single i.v.) was 750 10^9/L, the “Pltmax/Plt0, first value (mean)” value ([1]; 3.0 μg/kg single i.v.) was 3.21 and the “Pltmax/Plt0, range in brackets” value ([1]; 3.0 μg/kg single i.v.) was “(1.25-4.52)”. For the same substance, the “Pltmax/Plt0 … (footnote not given)” value ([1]; 3.0 μg/kg single i.v.) was 3.50, the “n (>1.5×), subjects with platelet increase” value ([1]; 3.0 μg/kg single i.v.) was 5 and the “n (>2×), subjects with platelet increase” value ([1]; 3.0 μg/kg single i.v.) was 5. The “n (>3×), subjects with platelet increase” value ([1]; 3.0 μg/kg single i.v.) was 4, the “n (>4×), subjects with platelet increase” value ([1]; 3.0 μg/kg single i.v.) was 1 and the “activity (relative luminescent units), compared between compounds” value [2] was “similar”.
